This assay has as its target Escherichia coli DNA gyrase A/B tetramer (Escherichia coli, UniProt P0AES4+P0AES6). Description: DNA gyrase supercoiling activity fluorescence polarisation assay. Type of assay: biochemical. As to the method:
In a black, 384-well polystyrene assay plate, 30 microliters/well of 5 nM Escherichia coli DNA gyrase A/B tetramer and 130 micrograms/ml of topologically relaxed plasmid containing the triplex-forming sequence […] in an assay buffer consisting of 35 mM Tris-HCl (pH 7.5), 24 mM KCl, 4 mM MgCl2, 2 mM dithiothreitol, 1.8 mM spermidine, 5% (v/v) glycerol, 200 nM bovine serum albumin, 0.8% dimethylsulfoxide, and 0.3 mM ATP may be incubated at ambient temperature for (typically 30 minutes) in the absence or presence of 5-10 different concentrations of test compound. The supercoiling reactions may be quenched by the addition of 10 microliters/well of 40 nM oligodeoxynucleotide probe in 3× triplex-forming buffer consisting of 150 mM NaCl, and 150 mM sodium acetate at pH 3.5. The oligodeoxynucleotide probe may be 5′-BODIPY-FL-labeled TTCTTCTTC. After 60 minutes, the fluorescence anisotropy of the BODIPY-FL may be measured in a Tecan Ultra plate reader, using 485 nm excitation and 535 nm emission filters equipped with polarizers. The IC50 may be determined by nonliner regression using two control reactions. The first contains no test compound but 0.8% DMSO (100% activity) while the second control reaction contains 5 uM Ciprofloxacin and 0.8% DMSO (0% activity).
When tested in an in-vitro assay based on the DNA gyrase supercoiling activity fluorescence polarisation assay described above, the E. coli DNA gyrase supercoiling IC50 assay inhibitory activity of the following Examples was measured at the indicated IC50.

Setting [1] is: 5 nM enzyme, 0.3 mM ATP, relaxed plasmid, fluorescence anisotropy readout, read-out: E. coli DNA gyrase supercoiling IC50.

Structures are written as SMILES. Where two headings read alike, the source gives them in different places.

Escherichia coli DNA gyrase A/B tetramer, sequence (P0AES4 whole entry, one chain of several): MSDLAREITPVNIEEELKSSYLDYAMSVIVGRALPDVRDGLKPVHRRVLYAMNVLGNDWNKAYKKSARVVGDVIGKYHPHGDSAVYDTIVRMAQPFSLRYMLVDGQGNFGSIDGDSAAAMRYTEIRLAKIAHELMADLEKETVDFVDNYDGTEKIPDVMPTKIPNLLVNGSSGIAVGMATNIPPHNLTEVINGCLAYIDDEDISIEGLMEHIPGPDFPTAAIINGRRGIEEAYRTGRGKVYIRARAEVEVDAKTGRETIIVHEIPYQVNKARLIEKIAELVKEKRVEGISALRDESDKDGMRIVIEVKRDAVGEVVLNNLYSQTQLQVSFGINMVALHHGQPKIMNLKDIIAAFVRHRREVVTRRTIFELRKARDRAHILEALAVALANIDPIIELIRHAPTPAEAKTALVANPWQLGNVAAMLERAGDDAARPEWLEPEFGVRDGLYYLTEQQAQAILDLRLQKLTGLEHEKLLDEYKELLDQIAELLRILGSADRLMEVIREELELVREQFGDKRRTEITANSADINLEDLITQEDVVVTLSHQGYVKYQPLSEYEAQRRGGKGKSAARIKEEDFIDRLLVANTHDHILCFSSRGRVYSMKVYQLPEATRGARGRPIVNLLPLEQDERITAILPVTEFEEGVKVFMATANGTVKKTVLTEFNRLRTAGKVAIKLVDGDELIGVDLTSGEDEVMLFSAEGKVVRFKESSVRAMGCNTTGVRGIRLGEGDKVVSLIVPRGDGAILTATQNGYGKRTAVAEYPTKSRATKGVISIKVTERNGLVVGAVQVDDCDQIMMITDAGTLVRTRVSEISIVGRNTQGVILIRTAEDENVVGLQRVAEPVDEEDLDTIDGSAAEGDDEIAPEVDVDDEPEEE

For the compound `C[C@@H]1CN2c3c(cc(C#Cc4cccnc4)c(F)c3F)CC3(C(=O)NC(=O)NC3=O)[C@H]2[C@H](C)O1` (relative stereo) [Example 18, (2R,4S,4aS)-rel-9,10-Difluoro-2,4-dimethyl-8-(pyridin-3-ylethynyl)-1,2,4,4a-tetrahydro-2′H,6H-spiro[1,4-oxazino[4,3-a]quinoline-5,5′-pyrimidine]-2′,4′,6′(1′H,3′H)-trione], the IC50 (in general, the concentration that inhibits the measured activity by half) stood at 500 nM.
With `C[C@H]1CN2c3c(cc(C#Cc4ncccn4)c(F)c3F)CC3(C(=O)NC(=O)NC3=O)[C@@H]2[C@@H](C)O1` (relative stereo) [Example 19, (2S,4R,4aR)-rel-9,10-Difluoro-2,4-dimethyl-8-(pyrimidin-2-ylethynyl)-1,2,4,4a-tetrahydro-2′H,6H-spiro[1,4-oxazino[4,3-a]quinoline-5,5′-pyrimidine]-2′,4′,6′(1′H,3′H)-trione], the concentration for half-maximal inhibition (IC50) worked out at 520 nM.
Same read-out and setting: under `C[C@H]1CN2c3c(cc(C#Cc4cnccn4)c(F)c3F)CC3(C(=O)NC(=O)NC3=O)[C@@H]2[C@@H](C)O1` (relative stereo) [Example 20, (2S,4R,4aR)-rel-9,10-Difluoro-2,4-dimethyl-8-(pyrazin-2-ylethynyl)-1,2,4,4a-tetrahydro-2′H,6H-spiro[1,4-oxazino[4,3-a]quinoline-5,5′-pyrimidine]-2′,4′,6′(1′H,3′H)-trione] stands 490 nM; under `C[C@@H]1CN2c3c(cc(/C=N/N4CCCC4)c(F)c3F)CC3(C(=O)NC(=O)NC3=O)[C@H]2[C@H](C)O1` (relative stereo) [Example 21, (2R,4S,4 aS)-rel-9,10-Difluoro-2,4-dimethyl-8-[(E)-(pyrrolidin-1-ylimino)methyl]-1,2,4,4a-tetrahydro-2′H,6H-spiro[1,4-oxazino[4,3-a]quinoline-5,5′-pyrimidine]-2′,4′,6′(1′H,3′H)-trione], 2250 nM.
On the same count and under the same terms, under `CC(=O)N/N=C/c1cc2c(c(F)c1F)N1C[C@@H](C)O[C@@H](C)[C@@H]1C1(C2)C(=O)NC(=O)NC1=O` (relative stereo) [Example 23, N′-{(E)-[(2R,4S,4aS)-rel-9,10-Difluoro-2,4-dimethyl-2′,4′,6′-trioxo-1,1′,2,3′,4,4′,4a,6′-octahydro-2′H,6H-spiro[1,4-oxazino[4,3-a]quinoline-5,5′-pyrimidin]-8-yl]methylidene}acetohydrazide] stands 1030 nM; under `C[C@@H]1CN2c3cc(F)c(C#Cc4nncs4)cc3CC3(C(=O)NC(=O)NC3=O)[C@H]2[C@H](C)O1` (relative stereo) [Example 24, (2R,4S,4aS)-rel-9-Fluoro-2,4-dimethyl-8-(1,3,4-thiadiazol-2-ylethynyl)-1,2,4,4a-tetrahydro-2′H,6H-spiro[1,4-oxazino[4,3-a]quinoline-5,5′-pyrimidine]-2′,4′,6′(1′H,3′H)-trione], 350 nM.
On to `Cc1nnc(C#Cc2cc3c(cc2F)N2C[C@@H](C)O[C@@H](C)[C@@H]2C2(C3)C(=O)NC(=O)NC2=O)s1` (relative stereo) [Example 25, (2R,4S,4aS)-rel-9-Fluoro-2,4-dimethyl-8-[(5-methyl-1,3,4-thiadiazol-2-yl)ethynyl]-1,2,4,4a-tetrahydro-2′H,6H-spiro[1,4-oxazino[4,3-a]quinoline-5,5′-pyrimidine]-2′,4′,6′(1′H,3′H)-trione], for which half-maximal inhibition (IC50) required 870 nM.
Same read-out and setting: under `C[C@@H]1CN2c3cc(F)c(C#Cc4nccs4)cc3CC3(C(=O)NC(=O)NC3=O)[C@H]2[C@H](C)O1` (relative stereo) [Example 26, (2R,4S,4aS)-rel-9-Fluoro-2,4-dimethyl-8-(1,3-thiazol-2-ylethynyl)-1,2,4,4a-tetrahydro-2′H,6H-spiro[1,4-oxazino[4,3-a]quinoline-5,5′-pyrimidine]-2′,4′,6′(1′H,3′H)-trione] stands 1080 nM.
Still for that read-out and setting: under `C[C@@H]1CN2c3cc(F)c(C#Cc4cncs4)cc3CC3(C(=O)NC(=O)NC3=O)[C@H]2[C@H](C)O1` (relative stereo) [Example 27, (2R,4S,4 aS)-rel-9-Fluoro-2,4-dimethyl-8-(1,3-thiazol-5-ylethynyl)-1,2,4,4a-tetrahydro-2′H,6H-spiro[1,4-oxazino[4,3-a]quinoline-5,5′-pyrimidine]-2′,4′,6′(1′H,3′H)-trione] stands 830 nM.
For `C[C@@H]1CN2c3cc(F)c(C#Cc4cccs4)cc3CC3(C(=O)NC(=O)NC3=O)[C@H]2[C@H](C)O1` (relative stereo) [Example 28, (2R,4S,4aS)-rel-9-Fluoro-2,4-dimethyl-8-(thiophen-2-ylethynyl)-1,2,4,4a-tetrahydro-2′H,6H-spiro[1,4-oxazino[4,3-a]quinoline-5,5′-pyrimidine]-2′,4′,6′(1′H,3′H)-trione], the IC50 came out at 1110 nM.
Consider `C[C@@H]1CN2c3cc(F)c(C#Cc4nccn4C)cc3C(=O)C3(CNC(=O)NC3=O)[C@H]2[C@H](C)O1` (relative stereo) [Example 30, (2R,4S,4aS)-rel-9-Fluoro-2,4-dimethyl-8-[(1-methyl-1H-imidazol-2-yl)ethynyl]-1,2,4,4a-tetrahydro-2′H,6H-spiro[1,4-oxazino[4,3-a]quinoline-5,5′-pyrimidine]-2′,4′,6(1′H,3′H)-trione], for which the concentration for half-maximal inhibition (IC50) under setting [1] was 1150 nM.
`C[C@@H]1CN2c3cc(F)c(C#Cc4cnccn4)cc3CC3(C(=O)NC(=O)NC3=O)[C@H]2[C@H](C)O1` (relative stereo) [Example 31, (2R,4S,4aS)-rel-9-Fluoro-2,4-dimethyl-8-(pyrazin-2-ylethynyl)-1,2,4,4a-tetrahydro-2′H,6H-spiro[1,4-oxazino[4,3-a]quinoline-5,5′-pyrimidine]-2′,4′,6′(1′H,3′H)-trione] yielded a concentration for half-maximal inhibition (IC50) of 980 nM.
Same read-out and setting: then `C[C@@H]1CN2c3cc(F)c(C#Cc4cccnc4)cc3CC3(C(=O)NC(=O)NC3=O)[C@H]2[C@H](C)O1` (relative stereo) [Example 32, (2R,4S,4aS)-rel-9-Fluoro-2,4-dimethyl-8-(pyridin-3-ylethynyl)-1,2,4,4a-tetrahydro-2′H,6H-spiro[1,4-oxazino[4,3-a]quinoline-5,5′-pyrimidine]-2′,4′,6′(1′H,3′H)-trione], with 2240 nM; and `C[C@@H]1CN2c3cc(F)c(C#Cc4ncccn4)cc3CC3(C(=O)NC(=O)NC3=O)[C@H]2[C@H](C)O1` (relative stereo) [Example 33, (2R,4S,4aS)-rel-9-Fluoro-2,4-dimethyl-8-(pyrimidin-2-ylethynyl)-1,2,4,4a-tetrahydro-2′H,6H-spiro[1,4-oxazino[4,3-a]quinoline-5,5′-pyrimidine]-2′,4′,6′(1′H,3′H)-trione], with 1180 nM.
On the same count and under the same terms, then `C[C@@H]1CN2c3cc(F)c(C#Cc4nc5ccccc5s4)cc3CC3(C(=O)NC(=O)NC3=O)[C@H]2[C@H](C)O1` (relative stereo) [Example 34, (2R,4S,4aS)-rel-8-(1,3-Benzothiazol-2-ylethynyl)-9-fluoro-2,4-dimethyl-1,2,4,4a-tetrahydro-2′H,6H-spiro[1,4-oxazino[4,3-a]quinoline-5,5′-pyrimidine]-2′,4′,6′(1′H,3′H)-trione], with 2950 nM; and `C[C@@H]1CN2c3cc(F)c(C#Cc4nc5ccccc5o4)cc3CC3(C(=O)NC(=O)NC3=O)[C@H]2[C@H](C)O1` (relative stereo) [Example 35, (2R,4S,4aS)-rel-8-(1,3-Benzoxazol-2-ylethynyl)-9-fluoro-2,4-dimethyl-1,2,4,4a-tetrahydro-2′H,6H-spiro[1,4-oxazino[4,3-a]quinoline-5,5′-pyrimidine]-2′,4′,6′(1′H,3′H)-trione], with 1480 nM.
The same measure, in the same setting: under `C[C@@H]1CN2c3c(F)cc(C#Cc4nncs4)cc3CC3(C(=O)NC(=O)NC3=O)[C@H]2[C@H](C)O1` (relative stereo) [Example 36, (2R,4S,4aS)-rel-10-Fluoro-2,4-dimethyl-8-(1,3,4-thiadiazol-2-ylethynyl)-1,2,4,4a-tetrahydro-2′H,6H-spiro[1,4-oxazino[4,3-a]quinoline-5,5′-pyrimidine]-2′,4′,6′(1′H,3′H)-trione] stands 710 nM.
For the compound `Cc1nnc(C#Cc2cc(F)c3c(c2)C(=O)C2(CNC(=O)NC2=O)[C@H]2[C@H](C)O[C@H](C)CN32)s1` (relative stereo) [Example 37, (2R,4S,4aS)-rel-10-Fluoro-2,4-dimethyl-8-[(5-methyl-1,3,4-thiadiazol-2-yl)ethynyl]-1,2,4,4a-tetrahydro-2′H,6H-spiro[1,4-oxazino[4,3-a]quinoline-5,5′-pyrimidine]-2′,4′,6(1′H,3′H)-trione], under setting [1], the IC50 is 940 nM.
Compound `C[C@@H]1CN2c3c(F)cc(C#Cc4nccs4)cc3CC3(C(=O)NC(=O)NC3=O)[C@H]2[C@H](C)O1` (relative stereo) [Example 38, (2R,4S,4aS)-rel-10-Fluoro-2,4-dimethyl-8-(1,3-thiazol-2-ylethynyl)-1,2,4,4a-tetrahydro-2′H,6H-spiro[1,4-oxazino[4,3-a]quinoline-5,5′-pyrimidine]-2′,4′,6′(1′H,3′H)-trione] had a concentration for half-maximal inhibition (IC50) of 760 nM.
Consider `C[C@@H]1CN2c3c(F)cc(C#Cc4cncs4)cc3CC3(C(=O)NC(=O)NC3=O)[C@H]2[C@H](C)O1` (relative stereo) [Example 39, (2R,4S,4aS)-rel-10-Fluoro-2,4-dimethyl-8-(1,3-thiazol-5-ylethynyl)-1,2,4,4a-tetrahydro-2′H,6′-spiro[1,4-oxazino[4,3-a]quinoline-5,5′-pyrimidine]-2′,4′,6′(1′H,3′H)-trione], for which, under setting [1], the IC50 stood at 870 nM.

Values taken from patent publication US20100261719A1, “CHEMICAL COMPOUNDS” (priority 2007, published 2010).
